Assay results from patent US4315018A, “Specific parasiticidal use of 2-benzamido-5-nitro-thiazole derivatives” (priority 1978, dated 1982).
“Also recorded” adds a separate entry of the source.

Columns and labels:
[1] = tested on: hookworms; assay: Treatment of nematodes in dogs: hookworms; type: in vivo
From the text: (§1) The general testing procedure was that of Example 1. […] 100% efficacy against whipworms and 65% efficacy against hookworms were found upon necropsy 4 days after treatment using a single dose treatment.

[2] = tested on: Gastro-Intestinal Nematodes; assay: Gastro-intestinal nematodes in lambs, worm counts; type: in vivo
Method: (§2) Twenty lambs spontaneously infested by nematodes and cestodes were removed from a flock near Limoges (Haute-Vienne), France. They were housed in sheepfold --concentrate food, 1 kg per day per lamb, water and hay, ad libitum, were provided.
To confirm the infestation, faeces were taken from the rectum 48 hours prior to treatment and the number of eggs counted.
(§3) The animals were assigned to treatment groups as indicated below:
(§4) Seven lambs (Group 1, black) were given a single 100 mg/kg of body weight dose of the test material dissolved in a mixture of water and gum syrup (0.5 ml/kg of body weight) orally administered with a syringe.
(§5) Seven lambs (Group 2, red) were given a single 50 mg/kg of body weight dose of the test material dissolved in a mixture of water and gum syrup (0.5 ml/kg of body weight) orally administered with a syringe.
(§6) Six lambs (Group 3, blue) were given 0.5 ml/kg of body weight of a mixture of water and gum syrup orally administered with a syringe.
(§7) 48 hours after treatment, necroscopies were performed.
(§8) Scolices and gastro intestinal worm counts were carried out.

[3] = tested on: Taenia pisiformis; assay: Treatment of Taenia pisiformis in dogs (experimental infection, single oral dose); type: in vivo, dogs (beagles)
Method: Fifteen beagles (8 male and 7 female), ranging in age from 8 to 30 months, were individually housed in stainless-steel cages and fed with commercial dog food. Water was provided ad libitum. After 2 weeks acclimatization, each dog was exposed to infection by administering orally 14-20 cysts containing Taenia pisiformis strobilocerci obtained 24 hours before from wild rabbits. Vitality of the cysts was verified by evagination in bile of the dog.
Seven dogs (Group 1) were given the drug 6 weeks after infection with Taenia pisiformis, and the other 8 dogs (Group 2) were given the drug 8 weeks after infection.
(§9) Food and water intake, faecel consistency, vomiting, general appearance and behavior were recorded hourly during the day of treatment and twice daily thereafter.
The tapeworms that were found were then removed, counted and examined for scolices.
The emission time of the faeces for each dog was recorded during the day, when possible.
Nineteen days after treatment for Group 1, and 4 days after treatment for Group 2, the dogs were killed and the small intestines were examined in order to reveal the presence of Taenia spp. This 19-day waiting period for Group 1 allowed time for any viable scolices to redevelop, thus making them more easily visible at necropsy.
The intestines and intestinal contents from the pyloric portion of the stomach through the rectum were thoroughly examined for parasites.

[4] = tested on: Moniezia spp.; assay: Treatment of Moniezia expansa in lambs (natural infestation); type: in vivo
Method: as §2, §3, §4, §5, §6, §7, §8

[5] = tested on: Dypilidium caninum; assay: Treatment of Dypilidium caninum in dogs (natural infection); type: in vivo; conditions: 100 mg/kg, tablets containing 0.5 gram, necropsy 21 days after treatment
From the text: In general, the testing procedure was substantially the same as in Example 1 except necropsy 21 days after treatment. The treatment was 100% effective.

[6] = tested on: whipworms; assay: Treatment of nematodes in dogs: whipworms; type: in vivo; conditions: 100 mg/kg single dose, tablets containing 0.5 g, 3 dogs, necropsy 4 days after treatment
From the text: as §1

[7] = Side effects of treatment in Taenia pisiformis-infected dogs; type: in vivo, dogs (beagles); conditions: 75 mg/kg, 15 dogs
Method: as §9

[8] = tested on: Echinococus granulosus; assay: Treatment of Echinococus granulosus in dogs (experimental infection); type: in vivo; conditions: 200 mg/kg, 0.5 gram tablets, treated 4 or 6 weeks after infection, necropsy 4 days after treatment
Method: Again, the general testing procedure was that of Example 1. This time 16 dogs to be treated were experimentally infected and divided into two groups along with 4 infected control dogs in each group. The 8 dogs of Group 1 were treated 4 weeks after infection, and the 8 dogs of Group 2 were treated 6 weeks after infection, each at a dose of 200 mg/kg, using the 0.5 gram active ingredient tablets. 100% efficacy of the single dose treatment was found upon necropsy 4 days after treatment.

[9] = Toxicity study in dogs, single doses; type: in vivo
From the text: (§10) Additional toxicity studies have been carried out in cats and dogs, which can be summarized as follows.
The lethal dose of the test material in dogs is greater than 10 g/kg.

[10] = Necropsy observations in treated lambs; type: in vivo; conditions: 48 hours after treatment
Method: as §4, §5, §7

[11] = Toxicity study in cats, single doses; type: in vivo
From the text: as §10
The lethal dose of the test material in cats is greater than 10 g/kg.

[12] = single dose 100 mg/kg, 7 naturally infested lambs

## CC(=O)Oc1ccccc1C(=O)Nc1ncc([N+](=O)[O-])s1 [PH 5776, 2-(2'-acetoxy)-benzamido-5-nitro-thiazole]
[1]; 100 mg/kg single dose, tablets containing 0.5 g, 3 dogs, necropsy 4 days after treatment
  Efficacy against hookworms: 65%
[1]; 3 repeated doses of 100 mg/kg at an interval of 7 days
  Efficacy against hookworms: 93%
[2]; Group 1, 100 mg/kg
  After Treatment At Necroscopies: Number Of Worms, Large Intestine: 0
[2]; lambs, 48 hours after treatment, 50 and 100 mg/kg
  Effect on round worms / gastro-intestinal nematodes (in words): no toxic effect on any of the present round worms; also recorded: does not reveal any efficacy; also recorded: no activity
[3]; 75 mg of body weight
  Effectiveness against Taenia pisiformis: effective
[3]; 75 mg/kg
  Tapeworm material in faeces after the 14th hour: not found
[3]; 75 mg/kg, 15 dogs, day 19 (Group 1) and day 4 (Group 2)
  Tapeworms at necropsy (in words): tapeworms were not found in any of the 15 dogs; also recorded: None of the dogs on study were positive for tapeworms
[3]; Group 1 (7 dogs), 75 mg/kg
  Number of dogs showing tapeworm material in the faeces: 5 dogs
[3]; Group 1, 75 mg/kg, 6 weeks after infection
  Tapeworm Material In Faeces (8th-14th Hour): yes and no
[3]; Group 2 (8 dogs), 75 mg/kg
  Number of dogs showing tapeworm material in the faeces: 6 dogs
[3]; Group 2, 75 mg/kg, 8 weeks after infection
  Tapeworm Material In Faeces (8th-14th Hour): yes and no
[3]; Groups 1 and 2, out of 15 dogs, 75 mg/kg
  Number of dogs showing tapeworm material in the faeces: 11 dogs
[4]; 50 mg/kg
  Efficacy against Moniezia spp. (in words): the efficacy is decreasing
  Number of lambs negative after treatment: 3 lambs
[4]; Group 2 (red), 50 mg/kg, 48 hours after treatment
  Number of lambs still infested with the cestoda: 3 lambs
[4]; [12]
  Activity against Moniezia spp.: ~100%
  Activity against Moniezia spp. (in words): very active
[5]
  Effectiveness of treatment: 100%
[6]
  Efficacy against whipworms: 100%
[7]
  Undesirable side effects of the treatment: not found in any of the 15 dogs
[8]
  Efficacy of the single dose treatment: 100%
[9]
  Lethal dose: greater than 10 g/kg
[9]; single doses of 1, 5 or 10 g/kg
  Signs of intoxication: Minimal signs of intoxication related to gastro-intestinal distress
[10]; 100 or 50 mg/kg
  Changes in the internal organs and coloration of the tissues: No changes in the internal organs and no coloration of the tissues were observed
[10]; treated groups (100 or 50 mg/kg)
  Coloration of small intestine wall tissues: slightly colored yellow
[11]
  Lethal dose: greater than 10 g/kg
  Necropsy findings: slight yellow discoloration of the renal cortex
[11]; doses of 5 and 10 g/kg
  Signs of intoxication (central nervous system): a suggestion of central nervous system depression
[11]; single doses of 1 g/kg
  Signs of intoxication: Minimal signs (slight diarrhea) of intoxication
[11]; suggested from necropsy findings
  Route of excretion: urine as a route of excretion
